Assay results: patent US11174232B2, “Substituted heterocyclyl derivatives as CDK inhibitors” (Aurigene Discovery Technologies Limited, priority 2015, dated 2021)

Target: CDK7/CycH/MNAT1 (Homo sapiens (Human), UniProt P50613)
Experiment: Biochemical Assay for CDK7 (TR-FRET kinase assay)
Details: 60 min pre-incubation with kinase, 1 mM ATP; for % inhibition @ 10 μM / inhibition at 10 µM: 10 μM compound
Protocol: Biochemical Assay for CDK7:
The ability of compounds to inhibit CDK7 kinase activity was tested in a TR-FRET assay using 5 nM of CDK7/CycH/MNAT1 obtained from Invitrogen, USA. Test compounds were pre-incubated with the kinase at room temperature for 60 min. After the incubation, substrate mix [100 nM Ultra-light MBP (Perkin Elmer, USA) and 1 mM ATP (Sigma)] was added. The above reaction was stopped by the addition of 40 mM EDTA after 60 minutes of kinase reaction. 1 nM Eu-labelled antiphospho-MBP antibody [Perkin Elmer, USA] was added, mixed well and the fluorescence emission at 615 nm and 665 nm [excitation at 340 nm] was measured. The final DMSO concentration in the assay was 1%. For IC50 determination, appropriate concentrations were made by ⅓^rd serial dilutions of 10 mM DMSO stock solution of test compound. All the fluorescence measurements were made in a Victor 3 Multilabel Counter [Perkin Elmer, USA]. The IC50 was determined by fitting the dose response data to sigmoidal curve fitting equation using GraphPad Prism software V5. To identify compounds that inhibit CDK7 irreversibly, time depended inhibition studies were carried by pre-incubating compound with the enzyme at three time points (20, 60 and 180 min) and carrying out assay as described above.
The compounds were screened by the above mentioned assay procedure.

Sequence of CDK7/CycH/MNAT1 (P50613 whole entry): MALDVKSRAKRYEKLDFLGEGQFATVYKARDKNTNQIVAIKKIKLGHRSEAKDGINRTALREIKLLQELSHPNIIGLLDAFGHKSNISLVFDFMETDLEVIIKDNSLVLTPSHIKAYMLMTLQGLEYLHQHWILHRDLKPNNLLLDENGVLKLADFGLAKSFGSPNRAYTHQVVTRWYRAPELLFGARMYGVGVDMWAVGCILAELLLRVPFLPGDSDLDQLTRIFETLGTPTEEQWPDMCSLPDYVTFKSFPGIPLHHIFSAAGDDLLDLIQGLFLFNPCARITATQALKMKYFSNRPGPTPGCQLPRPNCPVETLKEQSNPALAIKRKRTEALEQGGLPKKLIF
Sequence of CDK7/CycH/MNAT1 (P51946 whole entry partner): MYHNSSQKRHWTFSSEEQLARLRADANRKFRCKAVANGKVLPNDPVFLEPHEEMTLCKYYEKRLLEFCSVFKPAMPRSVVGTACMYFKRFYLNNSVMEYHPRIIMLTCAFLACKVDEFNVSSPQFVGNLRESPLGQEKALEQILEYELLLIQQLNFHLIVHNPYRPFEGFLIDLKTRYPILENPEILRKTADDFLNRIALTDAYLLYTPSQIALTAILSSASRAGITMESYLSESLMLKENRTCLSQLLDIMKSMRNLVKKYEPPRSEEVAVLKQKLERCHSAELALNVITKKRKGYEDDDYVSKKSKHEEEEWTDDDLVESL
Sequence of CDK7/CycH/MNAT1 (P51948 whole entry partner): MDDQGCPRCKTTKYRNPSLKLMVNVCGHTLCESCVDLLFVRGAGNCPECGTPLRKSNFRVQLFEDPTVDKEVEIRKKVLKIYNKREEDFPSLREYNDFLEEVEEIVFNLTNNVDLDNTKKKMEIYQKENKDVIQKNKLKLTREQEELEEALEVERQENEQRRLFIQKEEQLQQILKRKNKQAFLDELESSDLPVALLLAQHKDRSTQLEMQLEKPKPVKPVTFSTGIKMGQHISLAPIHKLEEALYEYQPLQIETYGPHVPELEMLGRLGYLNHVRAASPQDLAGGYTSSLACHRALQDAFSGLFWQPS

| SMILES | % inhibition @ 10 μM [%] | IC50 [nM] | inhibition at 10 µM [%] |
| --- | --- | --- | --- |
| CC(C(=O)Nc1cc(C2CC2)[nH]n1)c1cccc(-c2cnc(NC(=O)/C=C/CN3CCOCC3)c(F)c2)c1 (stereo not drawn) [Compound 63, (E)-N-(5-(3-(1-((5-cyclopropyl-1H-pyrazol-3-yl)amino)-1-oxopropan-2-yl)phenyl)-3-fluoropyridin-2-yl)-4-morpholinobut-2-enamide] |  | 25 to 100 | 98 |
| CC(C(=O)Nc1cc(C2CC2)[nH]n1)c1cccc(-c2cncc(NC(=O)/C=C/CN3CCCC3)n2)c1 (stereo not drawn) [Compound 92, (E)-N-(6-(3-(1-((5-cyclopropyl-1H-pyrazol-3-yl)amino)-1-oxopropan-2-yl)phenyl)pyrazin-2-yl)-4-(pyrrolidin-1-yl)but-2-enamide] |  | 25 to 100 | 86 |
| C=CC(=O)Nc1ccc(-c2cccc(C(C)C(=O)Nc3cc(CC)[nH]n3)c2)cc1 (stereo not drawn) [Compound 87, N-(3′-(1-((5-ethyl-1H-pyrazol-3-yl)amino)-1-oxopropan-2-yl)-[1,1′-biphenyl]-4-yl)acrylamide] |  | > 100 | 89 |
| CC(C(=O)Nc1cc(C2CC2)[nH]n1)c1cccc(-c2ccc(NC(=O)/C=C/CN3CCOCC3)c(F)n2)c1 (stereo not drawn) [Compound 58, (E)-N-(6-(3-(1-((5-cyclopropyl-1H-pyrazol-3-yl)amino)-1-oxopropan-2-yl)phenyl)-2-fluoropyridin-3-yl)-4-morpholinobut-2-enamide] |  | > 100 | 90 |
| CC(C(=O)Nc1cc(C2CC2)[nH]n1)c1cccc(-c2ccc(NC(=O)/C=C/CN3CCCC3)c(F)c2)c1 (stereo not drawn) [Compound 33, (E)-N-(3′-(1-((5-cyclopropyl-1H-pyrazol-3-yl)amino)-1-oxopropan-2-yl)-3-fluoro-[1,1′-biphenyl]-4-yl)-4-(pyrrolidin-1-yl)but-2-enamide] |  | 25 to 100 | 97 |
| C=CC(=O)Nc1ccc(-c2cccc(C(CC)C(=O)Nc3cc(C4CC4)[nH]n3)c2)nc1 (stereo not drawn) [Compound 26, 2-(3-(5-acrylamidopyridin-2-yl)phenyl)-N-(5-cyclopropyl-1H-pyrazol-3-yl)butanamide] |  | < 25 | 96 |
| C=CC(=O)Nc1ccc(C(=O)Nc2cccc(Nc3cc(CC)[nH]n3)c2)cc1 [Compound 83, 4-acrylamido-N-(3-((5-ethyl-1H-pyrazol-3-yl)amino)phenyl)benzamide] |  | > 100 | 62 |
| C=CC(=O)Nc1ccc(-c2cccc(C(C)C(=O)Nc3n[nH]c(C4CC4)c3C)c2)cc1 (stereo not drawn) [Compound 30, N-(3′-(1-((5-cyclopropyl-4-methyl-1H-pyrazol-3-yl)amino)-1-oxopropan-2-yl)-[1,1′-biphenyl]-4-yl)acrylamide] |  | > 100 | 28 |
| C=CC(=O)Nc1ccc(-c2cccc(C(CC)C(=O)Nc3cc(C4CC4)[nH]n3)c2)cc1F (stereo not drawn) [Compound 27, 2-(4′-acrylamido-3′-fluoro-[1,1′-biphenyl]-3-yl)-N-(5-cyclopropyl-1H-pyrazol-3-yl)butanamide] |  | < 25 | 98 |
| C=CC(=O)Nc1ccc(-c2cccc(C(C)C(=O)Nc3cc(C4CC4)[nH]n3)c2)nc1 (stereo not drawn) [Compound 24, N-(6-(3-(1-((5-cyclopropyl-1H-pyrazol-3-yl)amino)-1-oxopropan-2-yl)phenyl)pyridin-3-yl)acrylamide] |  | 25 to 100 | 96 |
| CC(C(=O)Nc1cc(C2CC2)[nH]n1)c1cccc(-c2ccc(NC(=O)/C=C/CN3CCOCC3)c(F)c2)c1 (stereo not drawn) [Compound 34, (E)-N-(3′-(1-((5-cyclopropyl-1H-pyrazol-3-yl)amino)-1-oxopropan-2-yl)-3-fluoro-[1,1′-biphenyl]-4-yl)-4-morpholinobut-2-enamide] |  | > 100 | 88 |
| CC(C(=O)Nc1cc(C2CC2)[nH]n1)c1cccc(C2CCN(C(=O)/C=C/CN(C)C)CC2)c1 (stereo not drawn) [Compound 85, (E)-N-(5-cyclopropyl-1H-pyrazol-3-yl)-2-(3-(1-(4-(dimethylamino)but-2-enoyl)piperidin-4-yl)phenyl)propanamide] |  | > 100 | 74 |

More lines, now with the values ahead:

| % inhibition @ 10 μM [%] | IC50 [nM] | inhibition at 10 µM [%] | SMILES |
| --- | --- | --- | --- |
| 90 | > 100 |  | CC(C(=O)Nc1cc(C2CC2)[nH]n1)c1cccc(-c2ccc(NC(=O)/C=C/CN3CC[C@@H](F)C3)nc2)c1 (single isomer, unassigned) [Compound 51] |
|  | < 25 | 96 | CC(C)C(C(=O)Nc1cc(C2CC2)[nH]n1)c1cccc(-c2ccc(NC(=O)/C=C/CN(C)C)nc2)c1 (stereo not drawn) [Compound 56, (E)-N-(5-(3-(1-((5-cyclopropyl-1H-pyrazol-3-yl)amino)-3-methyl-1-oxobutan-2-yl)phenyl)pyridin-2-yl)-4-(dimethylamino)but-2-enamide] |
|  | < 25 | 95 | CCN(CC)C/C=C/C(=O)Nc1ccc(-c2cccc(C(C)C(=O)Nc3cc(C4CC4)[nH]n3)c2)cn1 (stereo not drawn) [Compound 55, (E)-N-(5-(3-(1-((5-cyclopropyl-1H-pyrazol-3-yl)amino)-1-oxopropan-2-yl)phenyl)pyridin-2-yl)-4-(diethylamino)but-2-enamide] |
|  | < 25 | 100 | CCC(C(=O)Nc1cc(C2CC2)[nH]n1)c1cccc(-c2ccc(NC(=O)/C=C/CN(C)C)c(F)c2)c1 (stereo not drawn) [Compound 31, (E)-N-(3′-(1-((5-cyclopropyl-1H-pyrazol-3-yl)amino)-1-oxobutan-2-yl)-3-fluoro-[1,1′-biphenyl]-4-yl)-4-(dimethylamino)but-2-enamide] |
|  | > 100 | 60 | CC(C(=O)Nc1cc(C(C)(C)C)[nH]n1)c1cccc(-c2ccc(NC(=O)/C=C/CN(C)C)cc2)c1 (stereo not drawn) [Compound 9, (E)-N-(3′-(1-((5-(tert-butyl)-1H-pyrazol-3-yl)amino)-1-oxopropan-2-yl)-[1,1′-biphenyl]-4-yl)-4-(dimethylamino)but-2-enamide] |
| 75 | > 100 |  | CC(C(=O)Nc1cc(C2CC2)[nH]n1)c1cccc(-c2ccc(NC(=O)/C=C/CN3CCOCC3)nc2)c1 (single isomer, unassigned) [Compound 11, (E)-N-(5-(3-(1-((5-cyclopropyl-1H-pyrazol-3-yl)amino)-1-oxopropan-2-yl)phenyl)pyridin-2-yl)-4-morpholinobut-2-enamide] |
|  | > 100 | 81 | COC[C@@H]1CCCN1C/C=C/C(=O)Nc1ccc(-c2cccc(C(C)C(=O)Nc3cc(C4CC4)[nH]n3)c2)cn1 (single isomer, unassigned) [Compound 71] |
|  | < 25 | 99 | CC(C)C(C(=O)Nc1cc(C2CC2)[nH]n1)c1cccc(-c2ccc(NC(=O)/C=C/CN3CCOCC3)nc2)c1 (stereo not drawn) [Compound 44, (E)-N-(5-(3-(1-((5-cyclopropyl-1H-pyrazol-3-yl)amino)-3-methyl-1-oxobutan-2-yl)phenyl)pyridin-2-yl)-4-morpholinobut-2-enamide] |
|  | 25 to 100 | 96 | CC(C(=O)Nc1cc(C2CCCC2)[nH]n1)c1cccc(-c2ccc(NC(=O)/C=C/CN(C)C)c(F)c2)c1 (stereo not drawn) [Compound 28, (E)-N-(3′-(1-((5-cyclopentyl-1H-pyrazol-3-yl)amino)-1-oxopropan-2-yl)-3-fluoro-[1,1′-biphenyl]-4-yl)-4-(dimethylamino)but-2-enamide] |
|  | > 100 | 94 | CC(C(=O)Nc1cc(C2CC2)[nH]n1)c1cccc(-c2ccc(NC(=O)/C=C/CN(C)C)c(F)n2)c1 (stereo not drawn) [Compound 38, (E)-N-(6-(3-(1-((5-cyclopropyl-1H-pyrazol-3-yl)amino)-1-oxopropan-2-yl)phenyl)-2-fluoropyridin-3-yl)-4-(dimethylamino)but-2-enamide] |
| 69 | > 100 |  | CC(C(=O)Nc1cc(C2CC2)[nH]n1)c1cccc(-c2ccc(NC(=O)/C=C/CN(C)C)cc2)c1 (single isomer, unassigned) [Compound 2, (E)-N-(3′-(1-((5-cyclopropyl-1H-pyrazol-3-yl)amino)-1-oxopropan-2-yl)-[1,1′-biphenyl]-4-yl)-4-(dimethylamino)but-2-enamide] |
|  | > 100 | 79 | C=CC(=O)NCc1ccc(-c2cccc(C(C)C(=O)Nc3cc(C4CC4)[nH]n3)c2)cn1 (stereo not drawn) [Compound 74, N-((5-(3-(1-((5-cyclopropyl-1H-pyrazol-3-yl)amino)-1-oxopropan-2-yl)phenyl)pyridin-2-yl)methyl)acrylamide] |
|  | < 25 | 89 | CC(C(=O)Nc1cc(C2CC2)[nH]n1)c1cccc(-c2ccc(NC(=O)/C=C/CN3CC[C@@H](F)C3)nc2)c1 (stereo partly drawn) [Compound 49, (E)-N-(5-(3-(1-((5-cyclopropyl-1H-pyrazol-3-yl)amino)-1-oxopropan-2-yl)phenyl)pyridin-2-yl)-4-((R)-3-fluoropyrrolidin-1-yl)but-2-enamide] |
| 98 | < 25 |  | COC[C@@H]1CCCN1C/C=C/C(=O)Nc1ccc(-c2cccc(C(C)C(=O)Nc3cc(C4CC4)[nH]n3)c2)cn1 (single isomer, unassigned) [Compound 72] |
|  | > 100 | 95 | CC(C(=O)Nc1cc(C2CC2)[nH]n1)c1ccc(F)c(-c2ccc(NC(=O)/C=C/CN(C)C)cc2)c1 (stereo not drawn) [Compound 4, (E)-N-(5′-(1-((5-cyclopropyl-1H-pyrazol-3-yl)amino)-1-oxopropan-2-yl)-2′-fluoro-[1,1′-biphenyl]-4-yl)-4-(dimethylamino)but-2-enamide] |
